According to patent US20180164317A1, “METHOD FOR STRATIFICATION OF MELANOMA PATIENTS BY DETERMINATION OF OXYGEN CONSUMPTION, PPARGC1A, PPARGC1B AND MITF LEVELS” (Bayer Pharma Aktiengesellschaft, priority 2015, published 2018):

Assays:
A-431 = test: GI50 determination, cell viability (Alamar Blue or Cell Titer Glo); assay type: cell-based; conditions: Homo sapiens; A-431 cells; cell viability measured at days 3, 5 and 7; triplicate experiments
Method: (§1) COLO-792, SK-MEL-2, SK-MEL-28, IPC-298 and MEL-HO cells were cultured in RPMI media supplemented with 10% heat-inactivated and filtered FCS (hFCS). CHL-1, Hs852.T, G-361, RPMI-7951 and A-431 cells were cultured in DMEM media supplemented with 10% hFCS. HMCB cells were grown in MEM Earle's media containing 10% hFCS, 1 mM NaPyruvate, non-essential amino acids and 1 mM HEPES. Penicillin (at 50 I.U./mL), streptomycin (at 50 μg/mL), and L-glutamine (at 2 mM) or stable glutamine (supplied with the media) were additional ingredients in all culture media. All cells were grown in an incubator at 37° C. with 5% carbon dioxide.
(§2) Cells were counted and distributed to 96-well plates, with 1000-5000 cells per well. Each plate also contained wells with media alone for background measurements. Appropriate dilutions of BAY 123 or JQ1 were made in media in a titration series. When adherent cells were fully attached, media was removed and replaced with media containing BAY 123, JQ1, or DMSO as a control. Alternatively, appropriate volumes of BAY 123, JQ1 or DMSO were added to media using a dispenser (HP D300, Tecan).
(§3) Cell viability was measured at days 3, 5, and 7, with Alamar Blue (LifeTechnologies) staining and fluorescence detection (excitation 530nm, emission 590nm) in a microplate reader. Alternatively, Cell Titer Glo (Promega) was used, followed by luminescence detection. GI50 values were calculated from triplicate experiments using GraphPad prism software, using curves from plots of fluorescence or luminescence intensity vs. BAY 123 or JQ1 concentration in each cell line. […] Cell lines with a GI50 below 600 nM were defined as sensitive to BET inhibition.

CHL-1 [1] = test: as above; assay type: cell-based; conditions: Homo sapiens; CHL-1 cells; cell viability measured at days 3, 5 and 7; triplicate experiments
Method: as §1, §2, §3

COLO-792 [2] = test: as above; assay type: cell-based; conditions: Homo sapiens; COLO-792 cells; cell viability measured at days 3, 5 and 7; triplicate experiments
Method: as §1, §2, §3

G-361 [3] = test: as above; assay type: cell-based; conditions: Homo sapiens; G-361 cells; cell viability measured at days 3, 5 and 7; triplicate experiments
Method: as §1, §2, §3

HMCB = test: as above; assay type: cell-based; conditions: Homo sapiens; HMCB cells; cell viability measured at days 3, 5 and 7; triplicate experiments
Method: as §1, §2, §3

Hs 852.T = test: as above; assay type: cell-based; conditions: Homo sapiens; Hs 852.T cells; cell viability measured at days 3, 5 and 7; triplicate experiments
Method: as §1, §2, §3

IPC-298 = test: as above; assay type: cell-based; conditions: Homo sapiens; IPC-298 cells; cell viability measured at days 3, 5 and 7; triplicate experiments
Method: as §1, §2, §3

MEL-HO = test: as above; assay type: cell-based; conditions: Homo sapiens; MEL-HO cells; cell viability measured at days 3, 5 and 7; triplicate experiments
Method: as §1, §2, §3

RPMI-7951 = test: as above; assay type: cell-based; conditions: Homo sapiens; RPMI-7951 cells; cell viability measured at days 3, 5 and 7; triplicate experiments
Method: as §1, §2, §3

SK-MEL-28 = test: as above; assay type: cell-based; conditions: Homo sapiens; SK-MEL-28 cells; cell viability measured at days 3, 5 and 7; triplicate experiments
Method: as §1, §2, §3

SK-MEL-2 [4] = test: as above; assay type: cell-based; conditions: Homo sapiens; SK-MEL-2 cells; cell viability measured at days 3, 5 and 7; triplicate experiments
Method: as §1, §2, §3

COLO-792 [5] = test: Basal oxygen consumption rate (OCR), XF96 extracellular flux analyzer; assay type: cell-based, human; conditions: COLO-792 cells; FIG. 4
CHL-1 [6] = test: as above; assay type: cell-based, human; conditions: CHL-1 cells; 1 μM, 20 h pre-incubation; FIG. 4
Method: (§4) The OCR in G-361, CHL-1, RPMI-7951 and SK-MEL-2 melanoma cells was measured using the XF96 extracellular flux analyzer (Seahorse Bioscience) under standard conditions and after pre-incubation with 1 μM BAY 123 or JQ1 inhibitor for 20 h. Baseline mitochondrial function and mitochondrial stress response were measured by OCR using the XF Mito Stress Test Kit with an XF96 extracellular flux analyzer (Seahorse Bioscience). […] The drug injection ports of the XF96 Assay Cartridge were loaded with assay reagents at a final concentration of 1 μM oligomycin (ATP synthase inhibitor), 0.5 μM FCCP (ionophore and mitochondrial uncoupler which disrupts proton gradient and ATP synthesis), 1 μM Rotenone (mitochondrial complex I inhibitor) and 1 μM Antimycin A (mitochondrial complex III inhibitor).
(§5) Briefly, cells treated with 1 μM BAY 123 or JQ1 inhibitor for 20 h were seeded in quadruplicate at equal densities (20,000-30,000 cells/well) into XF96 tissue culture plates (Seahorse Bioscience). Cell culture medium was changed 12 hours after cell seeding into unbuffered DMEM (8.3 g/l DMEM [Sigma], 2 mM Glutamax [Invitrogen] 5 mM Glucose [Sigma], 1.85 g/l NaCl [Sigma], adjusted to pH 7.4 with NaOH). Real-time measurements of OCR in […] in culture medium were conducted. OCR was measured over time at baseline and following consecutive injections of 1 μM Oligomycin, 0.5 μM FCCP and a mix of 1 μM Rotenone+1 μM Antimycin A. The basal mitochondrial OCR was calculated. The OCR values were normalized to cell numbers plated. To this end, the cells were stained using Cyquant (Life technologies) and fluorescence measurements were made using a microplate reader with excitation at 485 nm and emission detection at 530 nm [Tecan].

G-361 [7] = test: as above; assay type: cell-based, human; conditions: G-361 cells; 1 μM, 20 h pre-incubation; FIG. 4
Method: as §4, §5

SK-MEL-2 [8] = test: as above; assay type: cell-based, human; conditions: SK-MEL-2 cells; 1 μM, 20 h pre-incubation; FIG. 4
Method: as §4, §5

[9] = tested on: melanoma cell lines (G-361, CHL-1, RPMI-7951, SK-MEL-2); test: Basal OCR, marker positive versus negative melanoma cell lines, XF96 analyzer; assay type: cell-based, human; conditions: 1 μM, 20 h treatment
Method: as §4
Briefly, cells treated with 1 μM BAY 123 or JQ1 inhibitor for 20 h were seeded in quadruplicate at equal densities (20,000-30,000 cells/well) into XF96 tissue culture plates (Seahorse Bioscience). […] OCR was measured over time at baseline and following consecutive injections of 1 μM Oligomycin, 0.5 μM FCCP and a mix of 1 μM Rotenone+1 μM Antimycin A. The basal mitochondrial OCR was calculated. […] To this end, the cells were stained using Cyquant (Life technologies) and fluorescence measurements were made using a microplate reader with excitation at 485 nm and emission detection at 530 nm [Tecan].

Cc1sc2c(c1C)C(c1ccc(Cl)cc1)=NC(CC(=O)OC(C)(C)C)c1nnc(C)n1-2 (racemic) [JQ1, [(R,S)-4-(4-Chlorophenyl)-2,3,9-trimethyl-6H-1-thia-5,7,8,9a-tetraaza-cyclopenta[e]azulen-6-yl]-acetic acid tert-butyl ester]
GI50 (A-431): 720 nM | GI50 (CHL-1 [1]): 60 nM | GI50 (COLO-792 [2]): 50 nM | GI50 (G-361 [3]): 240 nM | GI50 (HMCB): 330 nM | GI50 (Hs 852.T): 7570 nM | GI50 (IPC-298): 60 nM | GI50 (MEL-HO): 190 nM | GI50 (RPMI-7951): 1460 nM | GI50 (SK-MEL-28): 1760 nM | GI50 (SK-MEL-2 [4]): > 20000 nM | basal OCR with versus without treatment (COLO-792 [5]): Reduction of basal OCR | basal OCR with versus without treatment (CHL-1 [6]): Reduction of basal OCR | basal OCR with versus without treatment (G-361 [7]): Reduction of basal OCR | basal OCR with versus without treatment (SK-MEL-2 [8]): Reduction of basal OCR | decrease of basal OCR in PPARGC1A, PPARGC1B, MITF positive melanoma (G-361, CHL-1) compared to negative melanoma cell lines (RPMI-7951, SK-MEL-2) [9]: decreased more dramatically

CNC(=O)N1N=C(c2ccc(N3CCN(C)CC3)cc2)c2cc(OC)c(OC)cc2C[C@@H]1C [BAY 123, (4S)-7,8-dimethoxy-N,4-dimethyl-1-[4-(4-methylpiperazin-1-yl)phenyl]-4,5-dihydro-3H-2,3-benzodiazepine-3-carboxamide]
GI50 (A-431): 930 nM | GI50 (CHL-1 [1]): 70 nM | GI50 (COLO-792 [2]): 80 nM | GI50 (G-361 [3]): 250 nM | GI50 (HMCB): 570 nM | GI50 (Hs 852.T): 4440 nM | GI50 (IPC-298): 150 nM | GI50 (MEL-HO): 470 nM | GI50 (RPMI-7951): 2180 nM | GI50 (SK-MEL-28): 1260 nM | GI50 (SK-MEL-2 [4]): > 20000 nM | basal OCR with versus without treatment (COLO-792 [5]): Reduction of basal OCR | basal OCR with versus without treatment (CHL-1 [6]): Reduction of basal OCR | basal OCR with versus without treatment (G-361 [7]): Reduction of basal OCR | basal OCR with versus without treatment (SK-MEL-2 [8]): Reduction of basal OCR | decrease of basal OCR in PPARGC1A, PPARGC1B, MITF positive melanoma (G-361, CHL-1) compared to negative melanoma cell lines (RPMI-7951, SK-MEL-2) [9]: decreased more dramatically
